# According to PMC5413018, “Neuropeptide S (NPS) variants modify the signaling and risk effects of NPS Receptor 1 (NPSR1) variants in asthma” (PLoS ONE, 2017):
# Changes are numbered by the printed parent chain. Residues, ends and D or L forms follow the SMILES beside them.
# Columns and labels:
# NPSR1-Asn(107) = target: T1, NPSR1-Asn(107) (Homo sapiens, UniProt Q6W5P4); assay: CRE-dependent luciferase activity, NPSR1-Asn(107); format: cell-based; settings: HEK293 transiently transfected with NPSR1-Asn(107); NPS 10 pM-100 μM, 3 h; three experiments in triplicates; mean ± SE; Val(6) vs Leu(6) p = 0.03; read-out: pEC50 for CRE-dependent luciferase activity (converted)
# T1 construct: expressed in transfected cells; host or cells: HEK293
# T1 sequence (Q6W5P4 1-371): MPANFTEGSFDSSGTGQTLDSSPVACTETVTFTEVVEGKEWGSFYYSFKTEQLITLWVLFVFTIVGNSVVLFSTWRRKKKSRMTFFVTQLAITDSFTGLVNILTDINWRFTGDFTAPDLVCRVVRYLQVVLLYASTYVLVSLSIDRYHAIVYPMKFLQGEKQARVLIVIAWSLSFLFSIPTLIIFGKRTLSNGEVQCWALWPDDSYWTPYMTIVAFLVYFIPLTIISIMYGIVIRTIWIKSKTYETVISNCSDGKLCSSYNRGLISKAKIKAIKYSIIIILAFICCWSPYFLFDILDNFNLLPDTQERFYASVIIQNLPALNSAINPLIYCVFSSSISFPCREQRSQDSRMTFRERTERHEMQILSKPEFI
# Text: (§1) To compare the bioactivities of the two NPS variants, we measured the dose-responses of NPSR1-Ile(107) and NPSR1-Asn(107) coding variants to either wildtype NPS-Val(6) or alternative NPS-Leu(6) in a luciferase assay dependent on the activation of a cAMP-response element (CRE). This assay was used since elevation of the intracellular cAMP levels activates cAMP response element binding protein (CREB) via […]. Activated CREB binds to CRE and induces the expression of downstream target genes of the cAMP/PKA signaling pathway. Because of the low endogenous expression levels of NPSR1 in majority of the available cell lines, we first used HEK293 cells with forced NPSR1 expression as a model for ligand-receptor interactions. […] Firefly and Renilla luciferase activity was measured 3 h after stimulation with serial dilutions of NPS (10 pM-100 μM). […]
# (§2) Human embryonic kidney cells (HEK293) were cultured in MEM+GlutaMAX-1 medium (Gibco/Invitrogen) supplemented with 10% fetal calf serum (FCS) (Biosera), 1% sodium pyruvate, 1% non-essential amino acids and 1% penicillin/streptomycin (Gibco/Invitrogen). […] The HEK293 cell line was chosen for ligand-receptor studies because it is a well-established model for addressing numerous questions in basic biology and is easy to transfect and amenable of stringent quantitative assessment. […]
# NPSR1-Ile(107) = target: T2, NPSR1-Ile(107) (Homo sapiens, UniProt Q6W5P4, N107I); assay: CRE-dependent luciferase activity, NPSR1-Ile(107); format: cell-based; design: expressed in transfected cells; host or cells: HEK293; settings: HEK293 transiently transfected with NPSR1-Ile(107); NPS 10 pM-100 μM, 3 h; three experiments in triplicates; mean ± SE; Val(6) vs Leu(6) p = 0.004; read-out: pEC50 for CRE-dependent luciferase activity (converted)
# T2 sequence (Q6W5P4 1-371 N107I): T1 sequence (Q6W5P4 1-371) with N107I
# Text: as §1, §2
EC50 (NPSR1-Asn(107)),EC50 (NPSR1-Ile(107)),SMILES
12.6 µM,0.2 µM,CSCC[C@H](NC(=O)CNC(=O)[C@@H](NC(=O)CNC(=O)[C@H](CC(C)C)NC(=O)CNC(=O)[C@H](CC(N)=O)NC(=O)[C@H](CCCNC(=N)N)NC(=O)[C@H](Cc1ccccc1)NC(=O)[C@@H](N)CO)[C@@H](C)O)C(=O)N[C@@H](CCCCN)C(=O)N[C@@H](CCCCN)C(=O)N[C@H](C(=O)N[C@@H](CO)C(=O)N[C@@H](Cc1ccccc1)C(=O)N[C@@H](CCC(N)=O)C(=O)N[C@@H](CCCNC(=N)N)C(=O)N[C@@H](C)C(=O)N[C@@H](CCCCN)C(=O)N[C@@H](CO)C(=O)O)[C@@H](C)O [NPS-Leu(6)] (H-SFRNGLGTGMKKTSFQRAKS-OH)
0.794 µM,0.00398 µM,CSCC[C@H](NC(=O)CNC(=O)[C@@H](NC(=O)CNC(=O)[C@@H](NC(=O)CNC(=O)[C@H](CC(N)=O)NC(=O)[C@H](CCCNC(=N)N)NC(=O)[C@H](Cc1ccccc1)NC(=O)[C@@H](N)CO)C(C)C)[C@@H](C)O)C(=O)N[C@@H](CCCCN)C(=O)N[C@@H](CCCCN)C(=O)N[C@H](C(=O)N[C@@H](CO)C(=O)N[C@@H](Cc1ccccc1)C(=O)N[C@@H](CCC(N)=O)C(=O)N[C@@H](CCCNC(=N)N)C(=O)N[C@@H](C)C(=O)N[C@@H](CCCCN)C(=O)N[C@@H](CO)C(=O)O)[C@@H](C)O [NPS-Val(6)] (H-SFRNGVGTGMKKTSFQRAKS-OH)
